# According to paper PMC5064235, “Structure-Based Design of Novel Tetrahydro-Beta-Carboline Derivatives with a Hydrophilic Side Chain as Potential Phosphodiesterase Inhibitors” (Scientia Pharmaceutica, 2015):
# System: not given
# Assay: not given
# Conditions: not given
row,melting point [°C],SMILES
1,227 to 229,"O=C1[C@@H]2Cc3c([nH]c4ccccc34)[C@H](c3ccc(Cl)cc3)N2C(=O)CN1CCCCO [Compound 6k, (6S,12aS)-6-(4-Chloro-phenyl)-2-(4-hydroxy-butyl)-2,3,6,7,12,12a-hexahydropyrazino[1’,2’:1,6]pyrido[3,4-b]indole-1,4-dione]"
2,228 to 230,"O=C1[C@H]2Cc3c([nH]c4ccccc34)[C@@H](c3ccc(Cl)cc3)N2C(=O)CN1CCCCO [Compound 6c, (6R,12aR)-6-(4-Chloro-phenyl)-2-(4-hydroxy-butyl)-2,3,6,7,12,12a-hexahydropyrazino[1’,2’:1,6]pyrido[3,4-b]indole-1,4-dione]"
3,202 to 206,"O=C1[C@H]2Cc3c([nH]c4ccccc34)[C@H](c3ccc(Cl)cc3)N2C(=O)CN1CCO [Compound 6e, (6S,12aR)-6-(4-Chloro-phenyl)-2-(2-hydroxy-ethyl)-2,3,6,7,12,12a-hexahydro-pyrazino[1’,2’:1,6]pyrido[3,4-b]indole-1,4-dione]"

# Target: T1, recombinant human PDE5 (Homo sapiens, UniProt O76074)
# T1 construct: purchased BPS Biosciences, San Diego, CA, USA
# Assay: In vitro PDE5 inhibitory activity (IMAP FP phosphodiesterase assay)
# Format: biochemical
# Conditions: purified PDE5, 50 nM TAMRA-cGMP, 1.5 h at 30 °C; 10 concentrations, at least two replicates; read-out: PDE5 Inhibition IC50
# Method: Phosphodiesterase Assay: 5 U/mL of purified PDE5 (BPS Biosciences, San Diego, CA, USA) was added to the wells of black 96-well non-binding plates. Immediately, the protein was treated with the compound or vehicle control and 50 nM TAMRA-cGMP and 50 nM Fluourescein-cAMP (Molecular Devices, Sunnyvale, CA, USA) were added to each assay well. The plates were incubated for 1.5 h at 30 °C. After incubation, the IMAP FP Phosphodiesterase Evaluation Assay (Molecular Devices, Sunnyvale, CA, USA) binding reagent was added to each well and the plates were incubated for an additional 30 min at 30 °C. FP was measured according to manufacturer’s specifications using a Biotech Synergy 4 plate reader. PDE activity was expressed by an IC50 value (50% inhibitory concentration). Data analysis was done through dose-response analysis, which was repeated at least twice to confirm the reproducibility of the IC50 values.
# All the synthesized final THβC compounds were tested for their ability to inhibit recombinant human PDE5. Most of the compounds were evaluated in two steps. The first step was the determination of the percentage inhibition at a screening dose of 10 μM performed in triplicate. For compounds displaying a percentage of inhibition >50%, the IC50 was then determined by testing a range of 10 concentrations with at least two replicates per concentration (Table 2).
row,SMILES,IC50 [µM]
1,"O=C1[C@@H]2Cc3c([nH]c4ccccc34)[C@H](c3ccc(Cl)cc3)N2C(=O)CN1CCCCO [Compound 6k, (6S,12aS)-6-(4-Chloro-phenyl)-2-(4-hydroxy-butyl)-2,3,6,7,12,12a-hexahydropyrazino[1’,2’:1,6]pyrido[3,4-b]indole-1,4-dione]",2.31
2,"O=C1[C@H]2Cc3c([nH]c4ccccc34)[C@@H](c3ccc(Cl)cc3)N2C(=O)CN1CCCCO [Compound 6c, (6R,12aR)-6-(4-Chloro-phenyl)-2-(4-hydroxy-butyl)-2,3,6,7,12,12a-hexahydropyrazino[1’,2’:1,6]pyrido[3,4-b]indole-1,4-dione]",0.12
3,"O=C1[C@H]2Cc3c([nH]c4ccccc34)[C@H](c3ccc(Br)cc3)N2C(=O)CN1CCCCO [Compound 7g, (6S,12R)-6-(4-Bromo-phenyl)-2-(4-hydroxy-butyl)-2,3,6,7,12,12a-hexahydropyrazino[1’,2’:1,6]pyrido[3,4-b]indole-1,4-dione]",> 10
4,"NCCCCN1CC(=O)N2[C@H](c3ccc(Br)cc3)c3[nH]c4ccccc4c3C[C@@H]2C1=O [Compound 7d, (6R,12R)-2-(4-Amino-butyl)-6-(4-bromo-phenyl)-2,3,6,7,12,12a-hexahydro-pyrazino[1’,2’:1,6]pyrido[3,4-b]indole-1,4-dione]",2.7
5,"NCCCCN1CC(=O)N2[C@H](c3ccc(Cl)cc3)c3[nH]c4ccccc4c3C[C@H]2C1=O [Compound 6p, (6R,12S)-2-(4-Amino-butyl)-6-(4-chloro-phenyl)-2,3,6,7,12,12a-hexahydro-pyrazino[1’,2’:1,6]pyrido[3,4-b]indole-1,4-dione]",> 10
6,"O=C1[C@H]2Cc3c([nH]c4ccccc34)[C@H](c3ccc(Cl)cc3)N2C(=O)CN1CCO [Compound 6e, (6S,12aR)-6-(4-Chloro-phenyl)-2-(2-hydroxy-ethyl)-2,3,6,7,12,12a-hexahydro-pyrazino[1’,2’:1,6]pyrido[3,4-b]indole-1,4-dione]",4.7
7,"NCCCCN1CC(=O)N2[C@@H](c3ccc(Cl)cc3)c3[nH]c4ccccc4c3C[C@H]2C1=O [Compound 6l, (6S,12S)-2-(4-Amino-butyl)-6-(4-chloro-phenyl)-2,3,6,7,12,12a-hexahydro-pyrazino[1’,2’:1,6]pyrido[3,4-b]indole-1,4-dione]",> 10
8,"NCCN1CC(=O)N2[C@H](c3ccc(Br)cc3)c3[nH]c4ccccc4c3C[C@@H]2C1=O [Compound 7b, (6R,12R)-2-(2-Amino-ethyl)-6-(4-bromo-phenyl)-2,3,6,7,12,12a-hexahydro-pyrazino[1’,2’:1,6]pyrido[3,4-b]indole-1,4-dione]",2.4
9,"NCCCCN1CC(=O)N2[C@@H](c3ccc(Br)cc3)c3[nH]c4ccccc4c3C[C@@H]2C1=O [Compound 7h, (6S,12R)-2-(4-Amino-butyl)-6-(4-bromo-phenyl)-2,3,6,7,12,12a-hexahydro-pyrazino[1’,2’:1,6]pyrido[3,4-b]indole-1,4-dione]",3.2
10,"NCCCCN1CC(=O)N2[C@H](c3ccc(Cl)cc3)c3[nH]c4ccccc4c3C[C@@H]2C1=O [Compound 6d, (6R,12R)-2-(4-Amino-butyl)-6-(4-chloro-phenyl)-2,3,6,7,12,12a-hexahydro-pyrazino[1’,2’:1,6]pyrido[3,4-b]indole-1,4-dione]",> 10
11,"O=C1[C@H]2Cc3c([nH]c4ccccc34)[C@@H](c3ccc(Br)cc3)N2C(=O)CN1CCO [Compound 7a, (6R,12R)-6-(4-Bromo-phenyl)-2-(2-hydroxy-ethyl)-2,3,6,7,12,12a-hexahydro-pyrazino[1’,2’:1,6]pyrido[3,4-b]indole-1,4-dione]",0.84
12,"O=C1[C@H]2Cc3c([nH]c4ccccc34)[C@H](c3ccc(Br)cc3)N2C(=O)CN1CCO [Compound 7e, (6S,12R)-6-(4-Bromo-phenyl)-2-(2-hydroxy-ethyl)-2,3,6,7,12,12a-hexahydro-pyrazino[1’,2’:1,6]pyrido[3,4-b]indole-1,4-dione]",> 10
13,"O=C1[C@H]2Cc3c([nH]c4ccccc34)[C@@H](c3ccc(Br)cc3)N2C(=O)CN1CCCCO [Compound 7c, (6R,12R)-6-(4-Bromo-phenyl)-2-(4-hydroxy-butyl)-2,3,6,7,12,12a-hexahydropyrazino[1’,2’:1,6]pyrido[3,4-b]indole-1,4-dione]",0.1
14,"NCCN1CC(=O)N2[C@@H](c3ccc(Br)cc3)c3[nH]c4ccccc4c3C[C@@H]2C1=O [Compound 7f, (6S,12R)-2-(2-Amino-ethyl)-6-(4-bromo-phenyl)-2,3,6,7,12,12a-hexahydro-pyrazino[1’,2’:1,6]pyrido[3,4-b]indole-1,4-dione]",> 10

# More lines, now with the values ahead:
row,IC50 [µM],SMILES
1,3.5,"NCCCCN1CC(=O)N2[C@H](c3ccc(Br)cc3)c3[nH]c4ccccc4c3C[C@H]2C1=O [Compound 7p, (6R,12S)-2-(4-Amino-butyl)-6-(4-bromo-phenyl)-2,3,6,7,12,12a-hexahydro-pyrazino[1’,2’:1,6]pyrido[3,4-b]indole-1,4-dione]"
2,> 10,"O=C1[C@@H]2Cc3c([nH]c4ccccc34)[C@H](c3ccc(Br)cc3)N2C(=O)CN1CCCCO [Compound 7k, (6S,12S)-6-(4-Bromo-phenyl)-2-(4-hydroxy-butyl)-2,3,6,7,12,12a-hexahydropyrazino[1’,2’:1,6]pyrido[3,4-b]indole-1,4-dione]"
3,0.82,"O=C1[C@@H]2Cc3c([nH]c4ccccc34)[C@@H](c3ccc(Br)cc3)N2C(=O)CN1CCCCO [Compound 7o, (6R,12S)-6-(4-Bromo-phenyl)-2-(4-hydroxy-butyl)-2,3,6,7,12,12a-hexahydropyrazino[1’,2’:1,6]pyrido[3,4-b]indole-1,4-dione]"
4,> 10,"O=C1[C@@H]2Cc3c([nH]c4ccccc34)[C@H](c3ccc(Br)cc3)N2C(=O)CN1CCO [Compound 7i, (6S,12S)-6-(4-Bromo-phenyl)-2-(2-hydroxy-ethyl)-2,3,6,7,12,12a-hexahydro-pyrazino[1’,2’:1,6]pyrido[3,4-b]indole-1,4-dione]"
5,> 10,"NCCCCN1CC(=O)N2[C@@H](c3ccc(Br)cc3)c3[nH]c4ccccc4c3C[C@H]2C1=O [Compound 7l, (6S,12S)-2-(4-Amino-butyl)-6-(4-bromo-phenyl)-2,3,6,7,12,12a-hexahydro-pyrazino[1’,2’:1,6]pyrido[3,4-b]indole-1,4-dione]"
6,> 10,"NCCN1CC(=O)N2[C@@H](c3ccc(Br)cc3)c3[nH]c4ccccc4c3C[C@H]2C1=O [Compound 7j, (6S,12S)-2-(2-Amino-ethyl)-6-(4-bromo-phenyl)-2,3,6,7,12,12a-hexahydro-pyrazino[1’,2’:1,6]pyrido[3,4-b]indole-1,4-dione]"
7,0.9,"NCCN1CC(=O)N2[C@H](c3ccc(Br)cc3)c3[nH]c4ccccc4c3C[C@H]2C1=O [Compound 7n, (6R,12S)-2-(2-Amino-ethyl)-6-(4-bromo-phenyl)-2,3,6,7,12,12a-hexahydro-pyrazino[1’,2’:1,6]pyrido[3,4-b]indole-1,4-dione]"
8,0.6,"O=C1[C@@H]2Cc3c([nH]c4ccccc34)[C@@H](c3ccc(Br)cc3)N2C(=O)CN1CCO [Compound 7m, (6R,12S)-6-(4-Bromo-phenyl)-2-(2-hydroxy-ethyl)-2,3,6,7,12,12a-hexahydro-pyrazino[1’,2’:1,6]pyrido[3,4-b]indole-1,4-dione]"
